The values below come from patent US20150315218A1, “SALTS OF PRODRUGS OF PIPERAZINE AND SUBSTITUTED PIPERIDINE ANTIVIRAL AGENTS” (Bristol-Myers Squibb Company, priority 2004, published 2015).

Data set [1] in a line: Single dose study of Compound IVa in healthy human volunteers (capsule/solution, fasted/fed; first-in-human). It is filed as in vivo. Conditions: for AUCtotal / Cmax: n = 6. As to the method: The parent compound IVa has been studied in human clinical trials. The compound was dosed in healthy human volunteers.
It is also readily apparent from the oral AUCs, that increases in drug exposure increased much more slowly and less than proportionally with dose. […] Between 200-800 mg dose range the increases in systemic exposure is dose-related although less than dose-proportional, while such exposure is dose independent above dose of 800 mg.
Dosing with a solution increased Compound IVa exposure.
The AUCs after a fed treatment were approximately 2.5 and 4.7 fold for 800 and 1800 mg doses, respectively, of those of the fasted treatment.
For the 800 mg capsule with food, the average plasma concentration is 1001 and 218 ng/mL at 8 and 12 hours post dose, respectively. The results supported a ql2 h or q8 h dosing regimen for a targeted Cmin value of at least 200 ng/mL after multiple doses. This value was selected based on preclinical data.

Data set [2] in a line: MAP studies G and H: PO dosing of diester IIa and monoester II′a in rats. Type of data set: in vivo, rat. Conditions: 5 mg/kg; for AUC / Cmax / Tmax / bioavailability / half-life: male, Sprague-Dawley, rat, plasma, po; for half-life: read-out: T½ p.o. (converted). As for the experimental part:
Compound IVa was administered in a polyethylene glycol 400 (PEG400)/ethanol (EtOH) solution (90/10, v/v) unless noted otherwise. Plasma and tissue samples were collected and stored at −20° C. until analysis. Male Sprague-Dawley rats (300-350 g, Hilltop Lab Animals, Inc., Scottdale, Pa. 15683) with cannulas implanted in the jugular vein and/or bile duct were used in the pharmacokinetic studies of compound IVa. Rats were fasted overnight in PO studies. Blood samples (0.3 mL) were collected from the jugular vein in EDTA-containing microtainer tubes (Becton Dickinson, Franklin Lakes, N.J. 07147) to obtain plasma. […] In the PO studies, rats (n=3) received PO doses of 5 and 100 mg/kg.
The procedure for the oral dosing leg of MAP study A1 was followed except that diester IIa was utilized in place of Compound IVa. […] The data is described in Table 10 below:
The procedure for the oral dosing leg of MAP study A1 was followed except that monoester II′a was utilized in place of Compound IVa. […]

Data set [3] is described as follows: Oral dose escalation study in rats (Study D of Ica; historical Study E of IVc). It is filed as in vivo. Particulars: Sprague-Dawley, rat, plasma; for concentration at 24 h: read-out: C-24 hr; for AUC: read-out: Mean AUCtot. As for the experimental part: Pharmacokinetic analysis was performed on Kinetica™.
The brain samples were blotted dry and the wet weights were recorded.

Data set [4] is described as follows: 2-week rat toxicity study (5, 50 or 500 mg/kg BID). It is filed as in vivo. Particulars: 2 weeks, in-life phase completed. As for the experimental part:
A 2-week rat toxicity study using dosages of 5, 50, or 500 mg/kg BID to support the IND is ongoing (3).

Data set [5] can be described thus: Capsule formulation studies of IVa (clinical form, spray dried form) vs Iab in fasted dogs. It is filed as in vivo, dog. Conditions: capsules, 20 mg/kg of IVa equivalent. As for the experimental part: Additional formulation studies of IVa were conducted in fasted dogs (n=2 per dose group). The dogs were administered either the clinical form or the spray dried form of IVa in capsules. The clinical capsule form of IVa was administered at a single dose of 20 mg/kg. The spray dried form of IVa was administered at 20, 75 and 200 mg/kg.

Data set [6] can be described thus: pKa. It is filed as physicochemical. Conditions: read-out: pKa (potentiometric).
The conditions of data set [7]: pH 7.5.
Description: The stability of Iab was also evaluated, as described above, in Tris-HCl buffer (0.1 M, pH 7.5). The stability of Ibb was also evaluated, as described above, in Tris-HCl buffer (0.1 M, pH 7.5). The stability of Icb was also evaluated, as described above, in Tris-HCl buffer (0.1 M, pH 7.5).
For data set [8] the following is noted: human.
Description: (§1) The stability of Iab was studied in fresh blood and serum from rat, dog, monkey and human (n=2). The blood was collected in vacutainers containing K2EDTA (Becton Dickinson, Franklin Lakes, N.J.). The serum was collected in vacutainers containing no anticoagulant. Iab was incubated at a starting concentration of approximately 10 μM for 60-90 min at 37° C. Serial samples were taken at the pre-determined times. Aliquots of blood samples (200 μL) were first mixed with 100 μL of water followed by 400 μL of acetonitrile. The serum samples (50 μL) were added into microtainers containing K2EDTA (Becton Dickinson, Franklin Lakes, N.J.) followed by the addition of 100 μL of acetonitrile. The supernatant was analyzed for both Iab and IVa by LC/MS/MS. The stability of Ibb was studied in fresh blood and serum from rat, dog, monkey and human (n=2). The blood was collected in vacutainers containing K2EDTA (Becton Dickinson, Franklin Lakes, N.J.). The serum was collected in vacutainers containing no anticoagulant. Ibb was incubated at a starting concentration of approximately 15 μM for 90 min at 37° C. Serial samples were taken at the pre-determined times. Aliquots of blood samples (200 μL) were first mixed with 100 μL of water followed by 400 μL of acetonitrile. The serum samples (50 μL) were added into microtainers containing K2EDTA (Becton Dickinson, Franklin Lakes, N.J.) followed by the addition of 100 μL of acetonitrile. […] The stability of Icb was studied in fresh blood and serum from rat, dog, monkey and human (n=2). The blood was collected in vacutainers containing K2EDTA (Becton Dickinson, Franklin Lakes, N.J.). The serum was collected in vacutainers containing no anticoagulant. Icb was incubated at a starting concentration of approximately 10 μM for 90 min at 37° C. Serial samples were taken at the pre-determined times. Aliquots of blood samples (200 μL) were first mixed with 100 μL of water followed by 400 μL of acetonitrile. The serum samples (50 μL) were added into microtainers containing K2EDTA (Becton Dickinson, Franklin Lakes, N.J.) followed by the addition of 100 μL of acetonitrile.
The conditions of data set [9]: monkey, 10 μM.
Description: as §1
The conditions of data set [10]: rat, 10 μM.
Description: as §1
For data set [11] the following is noted: rat.
Description: as §1
Setting [12] is: 1800 mg capsule, high fat meal vs fasted.
The mark [13] stands for this setting: fed (high fat meal), dose ratio 1:2.3 (800 mg vs. 1800 mg).
The mark [14] stands for this setting: IVa following PO dosing of diester IIa.
Where [15] appears, read: IVa following PO dosing of monoester II′a.

The structures appear in SMILES notation. Where a name gives a salt, the structure may show the parent alone. Read-outs that look alike come from different tables or passages of the source. Some results are limits rather than exact numbers.

The bioavailability is the share of a dose that reaches the circulation, judged against a reference dose that is usually intravenous. Broadly, the Cmax is the maximum level reached in the sampled fluid or tissue. Broadly, the Tmax is the time from dosing to the highest level. As to `COc1ncc(OC)c2c(C(=O)C(=O)N3CCN(C(=O)c4ccccc4)CC3)c[nH]c12` [IVa, N-(benzoyl)-N′-[(4,7-dimethoxy-6-azaindol-3-yl)-oxoacetyl]piperazine], in data set [1] (200 mg), the “AUC of the solution relative to the capsule” value is given as about 3 fold. In addition, the “Cmax of the solution relative to the capsule” value in data set [1] (200 mg) is given as “approximately 8 fold”. The “relative bioavailability (fed vs. fasted)” value in data set [1] (800 mg) came to 293%; in data set [1] (1800 mg), 509%. For the same molecule, the “AUCtotal” value stood at 22 ± 12 µM·h in data set [1] (800 mg, Fasting); 53 ± 10 µM·h in data set [1] (800 mg, Fed); 19 ± 5.8 µM·h in [1] (1800 mg, Fasting); 82 ± 16 µM·h in [1] (1800 mg, Fed). Also, the “AUC Fed/Fasting Ratio” value in [1] (setting [12]) amounted to 4.3. Also, in data set [1] (setting [12]), the “Cmax Fed/Fasting Ratio” value amounted to 4.5. In [1] (setting [13]), the “ratio of AUC” value was 1.5. For the same molecule, the “ratio of Cmax” value in data set [1] (setting [13]) worked out at 1.6. In addition, the bioavailability stood at 32% in data set [1] (human, plasma, oral, 200 mg, read-out: relative bioavailability of the capsule to the solution formulation); 33% in data set [2] (setting [14]); 44% in data set [2] (setting [15]). Moreover, the peak concentration (Cmax) in data set [1] (human, plasma, oral, 800 mg, Fasting) came to 3.7 ± 1.1 µM; in data set [1] (human, plasma, oral, 800 mg, Fed) it was 9.8 ± 1.3 µM; in [1] (human, plasma, oral, 1800 mg, Fasting), 3.3 ± 0.84 µM; in data set [1] (human, plasma, oral, 1800 mg, Fed) it was 15 ± 5 µM; in data set [2] (setting [14]), 1.12 ± 0.27 µM; in data set [2] (setting [15]) it was 1.59 ± 0.615 µM. Also, the concentration at 8 h in data set [1] (human, plasma, oral, 800 mg capsule with food, 8 hours post dose) is 1000 ng/mL. Further, the concentration at 12 h in data set [1] (human, plasma, oral, 800 mg capsule with food, 12 hours post dose) is 218 ng/mL. Moreover, the Tmax in data set [1] (human, plasma, oral, fed, read-out: median Tmax) was determined as 4 h; in [2] (setting [14]) it was 2.7 ± 1.2 h; in [2] (setting [15]) it was 2 ± 1.7 h. For the same molecule, the “Cp @ 24 hr p.o. (nM)” value in data set [2] (setting [14]) is recorded as “Not detected”; in [2] (IVa following PO dosing of monoester II′a, n = 2/3), 3.61 (n = 2/3) nM. Further, the figures for the AUC in [2] (setting [14]) and in data set [2] (setting [15]) were 4 ± 1 µM·h and 5.9 ± 2.2 µM·h, respectively. Besides, the half-life in data set [2] (setting [14]) was 1.3 ± 0.26 h; in [2] (setting [15]) it was 2.8 ± 1.6 h.

As to `COc1cnc(-n2cnc(C)n2)c2[nH]cc(C(=O)C(=O)N3CCN(C(=O)c4ccccc4)CC3)c12` [IVc], the concentration at 24 h in [3] (oral, 25 mg/kg) amounted to 0.61 µM; in [3] (oral, 75 mg/kg), 5.2 µM; in data set [3] (oral, 200 mg/kg), 10 µM; in data set [3] (male, po, 5 mg/kg) it was 0.029 ± 0.008 µM; in [3] (male, po, 25 mg/kg) it was 0.35 ± 0.13 µM; in data set [3] (male, po, 200 mg/kg), 58 ± 36 µM. Moreover, the Cmax in [3] (po, 25 mg/kg) worked out at 46 µM; in data set [3] (po, 75 mg/kg) it was 86 µM; in data set [3] (po, 200 mg/kg), 42 µM; in data set [3] (male, po, 5 mg/kg), 29 ± 14 µM; in [3] (male, po, 25 mg/kg), 98 ± 21 µM; in data set [3] (male, po, 200 mg/kg), 281 ± 55 µM. The time of peak concentration (Tmax) was 4 h in [3] (po, 25 mg/kg); 5 h in [3] (po, 75 mg/kg); 4 h in data set [3] (po, 200 mg/kg); 0.5 ± 0.25 h in data set [3] (male, po, 5 mg/kg); 1.7 ± 2 h in data set [3] (male, po, 25 mg/kg); 1.1 ± 0.8 h in [3] (male, po, 200 mg/kg). The AUC in data set [3] (po, 25 mg/kg) was 458 µM·h; in data set [3] (po, 75 mg/kg), 1070 µM·h; in [3] (po, 200 mg/kg) it was 518 µM·h; in [3] (male, po, 5 mg/kg) it was 109 ± 15 µM·h; in data set [3] (male, po, 25 mg/kg), 586 ± 53 µM·h; in data set [3] (male, po, 200 mg/kg) it was 2920 ± 304 µM·h.

Take `COc1cnc(OC)c2c1c(C(=O)C(=O)N1CCN(C(=O)c3ccccc3)CC1)cn2COP(=O)(O)O` [Iab, {3-[(4-benzoylpiperazin-1-yl)(oxo)acetyl]-4,7-dimethoxy-1H-pyrrolo[2,3-c]pyridin-1-yl}methyl dihydrogen phosphate, L-lysine salt (1:1)]: the in-life observations entry in [4] is “no noteworthy in-life observations”. In [5], the “AUC of IVa from the prodrug relative to the clinical form of IVa” value is 37 times and the “Cmax of IVa from the prodrug relative to the clinical form of IVa” value stood at 45 times.

A word on the pKa: it is the pH at which an ionisable group is half protonated. With `O=C(C(=O)N1CCN(C(=O)c2ccccc2)CC1)c1cn(COP(=O)(O)O)c2c(-n3ccnn3)ncc(F)c12` [Ibb, [3-[(4-benzoylpiperazin-1-yl)(oxo)acetyl]-4-fluoro-7-(1H-1,2,3-triazol-1-yl)-1H-pyrrolo[2,3-c]pyridin-1-yl]methyl dihydrogen phosphate, L-lysine salt (1:1)], in data set [6], the pKa was 6.1.

As for `COc1cnc(-n2cnc(C)n2)c2c1c(C(=O)C(=O)N1CCN(C(=O)c3ccccc3)CC1)cn2COP(=O)(O)O` [Icb, [3-[(4-benzoylpiperazin-1-yl)(oxo)acetyl]-4-methoxy-7-(3-methyl-1H-1,2,4-triazol-1-yl)-1H-pyrrolo[2,3-c]pyridin-1-yl]methyl dihydrogen phosphate, 2-amino-2-(hydroxymethyl)propane-1,3-diol salt (1:1)], the “Icb” value in data set [7] (0 min, 10 μM) worked out at 11 µM; in [7] (15 min) it was 11 µM; in data set [7] (30 min) it was 11 µM; in data set [7] (45 min, 10 μM) it was 11 µM; in data set [7] (60 min, 10 μM), 10 µM; in data set [7] (90 min, 10 μM), 11 µM. Further, the “Icb” value was 11 µM in [8] (0 min, 10 μM); 11 µM in data set [8] (15 min); 13 µM in data set [8] (30 min); 12 µM in [8] (45 min, 10 μM); 11 µM in data set [8] (60 min, 10 μM); 11 µM in [8] (90 min, 10 μM). Besides, the “Icb” value came out at 9.3 µM in [9] (0 min); 7.1 µM in data set [9] (15 min); 1.1 µM in data set [9] (90 min); 7.6 µM in data set [10] (0 min); 6.5 µM in [10] (15 min); 2.1 µM in data set [10] (90 min). In addition, the “Icb” value was determined as 12 µM in [11] (0 min), 11 µM in data set [11] (15 min) and 12 µM in data set [11] (90 min). The “stability / conversion of prodrug to parent in Tris-HCl buffer” value in data set [7] (90 min) is on record as “less than 2%”. The “conversion of prodrug to parent in blood containing EDTA” value in data set [8] and in data set [11] was under 2% throughout.
